Several values for one entry are separate records, joined by “and”; a condition that tells them apart may be missing. Equal values may be shown once. Toxic doses and inconclusive results are not listed. No stated cut-off is given here; in the data, active means T/C of 150% or more; inactive means T/C below 125%.
Tested on: L1210 leukemia ip in BDF1 mice, survival T/C
Assay: NCI In Vivo Anticancer Drug Screen. Data for tumor model L1210 Leukemia (intraperitoneal) in B6D2F1 (BDF1) mice
Settings: endpoint: mean survival time, higher = longer survival
In short: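 In this screen, tumor-bearing mice given compound are compared to those given vehicle, and their survival values are reported as a treated-to-control quotient.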

[1] = dose: 100.0 mg/kg/injection, schedule: Q04DX002 (ip), vehicle: saline with Tween-80
[2] = dose: 200.0 mg/kg/injection, schedule: Q04DX002 (ip), vehicle: saline with Tween-80
[3] = dose: 100.0 mg/kg/injection, schedule: Q01DX001 (ip), vehicle: saline
[4] = dose: 200.0 mg/kg/injection, schedule: Q01DX001 (ip), vehicle: saline
[5] = dose: 400.0 mg/kg/injection, schedule: Q01DX001 (ip), vehicle: saline
[6] = dose: 100.0 mg/kg/injection, schedule: Q04DX003 (ip), vehicle: saline
[7] = dose: 200.0 mg/kg/injection, schedule: Q04DX003 (ip), vehicle: saline
[8] = dose: 400.0 mg/kg/injection, schedule: Q04DX003 (ip), vehicle: saline

Measured: T/C

CCOC(=O)CC1CCC/C1=N/O (stereo not drawn)
inactive: dose: 75.0 mg/kg/injection, schedule: Q01DX009 (sc), vehicle: olive oil, sesame oil, peanut oil 98 % of control | dose: 150.0 mg/kg/injection, schedule: Q01DX009 (sc), vehicle: olive oil, sesame oil, peanut oil 94 % of control | dose: 300.0 mg/kg/injection, schedule: Q01DX009 (sc), vehicle: olive oil, sesame oil, peanut oil 100 % of control

COc1ccc(/C(=N\O)C(C)=O)cc1OC
inactive: dose: 100.0 mg/kg/injection, schedule: Q04DX002 (ip), vehicle: Klucel (hydroxypropylcellulose) (HPC) 103 % of control | dose: 200.0 mg/kg/injection, schedule: Q04DX002 (ip), vehicle: Klucel (hydroxypropylcellulose) (HPC) 103 % of control | dose: 400.0 mg/kg/injection, schedule: Q04DX002 (ip), vehicle: Klucel (hydroxypropylcellulose) (HPC) 91 % of control

O=C(c1ccccn1)c1nnn2ccccc12
inactive: [1] 91 % of control | [2] 87 % of control

Cc1[nH]c2ccccc2c1C1CCC(=O)C1 (stereo not drawn)
inactive: dose: 100.0 mg/kg/injection, schedule: Q01DX001 (ip), vehicle: carboxymethylcellulose (CMC) 100 % of control | dose: 200.0 mg/kg/injection, schedule: Q01DX001 (ip), vehicle: carboxymethylcellulose (CMC) 89 % of control | dose: 400.0 mg/kg/injection, schedule: Q01DX001 (ip), vehicle: carboxymethylcellulose (CMC) 93 % of control

Cc1ccc([P+](=O)O)cc1Cl
inactive: [3] 100 % of control | [4] 93 % of control | [5] 88 % of control

CC(O)C(NCNC(=O)C1=C(O)C2(O)C(=O)C3=C(O)c4c(O)cccc4C(C)(O)C3CC2C(N(C)C)C1=O)C(=O)O (stereo not drawn)
inactive: dose: 1.0 mg/kg/injection, schedule: Q01DX Z (ip), vehicle: saline 110 % of control | dose: 4.0 mg/kg/injection, schedule: Q01DX Z (ip), vehicle: saline 100 % of control | dose: 14.0 mg/kg/injection, schedule: Q01DX Z (ip), vehicle: saline 91 % of control | dose: 15.0 mg/kg/injection, schedule: Q01DX Z (ip), vehicle: saline 96 % of control | dose: 28.0 mg/kg/injection, schedule: Q01DX Z (ip), vehicle: saline 102 % of control | dose: 56.0 mg/kg/injection, schedule: Q01DX Z (ip), vehicle: saline 91 % of control | dose: 60.0 mg/kg/injection, schedule: Q01DX Z (ip), vehicle: saline 98 % of control | [6] 98 % of control | dose: 120.0 mg/kg/injection, schedule: Q01DX Z (ip), vehicle: saline 93 % of control | [7] 100 % of control | dose: 224.0 mg/kg/injection, schedule: Q01DX Z (ip), vehicle: saline 91 % of control | dose: 240.0 mg/kg/injection, schedule: Q01DX Z (ip), vehicle: saline 95 % of control and 98 % of control | [8] 109 % of control | dose: 448.0 mg/kg/injection, schedule: Q01DX Z (ip), vehicle: saline 93 % of control | dose: 480.0 mg/kg/injection, schedule: Q01DX Z (ip), vehicle: saline 107 % of control

CCOc1c(Br)cc(Br)cc1/C=N/NS(=O)(=O)c1ccc(C)cc1
inactive: dose: 50.0 mg/kg/injection, schedule: Q01DX009 (ip), vehicle: Klucel (hydroxypropylcellulose) (HPC) 103 % of control | dose: 100.0 mg/kg/injection, schedule: Q01DX009 (ip), vehicle: Klucel (hydroxypropylcellulose) (HPC) 105 % of control | dose: 100.0 mg/kg/injection, schedule: Q04DX003 (ip), vehicle: Klucel (hydroxypropylcellulose) (HPC) 101 % of control | dose: 200.0 mg/kg/injection, schedule: Q04DX003 (ip), vehicle: Klucel (hydroxypropylcellulose) (HPC) 109 % of control | dose: 400.0 mg/kg/injection, schedule: Q04DX003 (ip), vehicle: Klucel (hydroxypropylcellulose) (HPC) 92 % of control

Cc1cc(-c2ccc(NC(=O)N(C)C)c(C)c2)ccc1NC(=O)N(C)C
inactive: [1] 100 % of control | [2] 114 % of control | dose: 400.0 mg/kg/injection, schedule: Q04DX002 (ip), vehicle: saline with Tween-80 96 % of control

CC(C)C(CN)(CCCN1CCCCC1)c1cccc2ccccc12 (stereo not drawn)
inactive: dose: 100.0 mg/kg/injection, schedule: Q04DX003 (ip), vehicle: saline with Tween-80 101 % of control

NCc1c[nH]c2ccccc12
inactive: dose: 44.0 mg/kg/injection, schedule: Q01DX Z (ip), vehicle: water 107 % of control | dose: 66.0 mg/kg/injection, schedule: Q01DX Z (ip), vehicle: water 105 % of control | [3] 95 % of control | dose: 100.0 mg/kg/injection, schedule: Q01DX Z (ip), vehicle: water 105 % of control | [6] 98 % of control | dose: 150.0 mg/kg/injection, schedule: Q01DX Z (ip), vehicle: water 105 % of control | [4] 92 % of control | [7] 95 % of control | [5] 89 % of control | [8] 88 % of control

Reference: PubChem BioAssay AID248 (DTP/NCI, 2004)
